Measurements reported in patent US20250017937A1, “MGLU2/3 ANTAGONISTS FOR THE TREATMENT OF INTELLECTUAL DISABILITIES” (Hoffmann-La Roche Inc., priority 2014, published 2025).

System: Shank3 KO mice
Experiment: Water maze cognition experiment (acquisition and reversal learning) in Shank3 KO mice
Assay type: in vivo, mouse
Details: female SHANK3-KO mice
Description: Example 1: Cognition experiment in Shank3 KO mice an animal model of ASD with reported impairment in cognition
11-12 female wild-type and Shank3 KO mice on C57B16/J background were from F. Hoffmann La Roche breeding facilities, and were 10 weeks old at the beginning of the study. 20male Nlgn3 knockout rats and 20 littermate wild-type controls (background: Sprague Dawley) were from F. Hoffmann La Roche breeding facilities. All rats and mice were group-housed in holding rooms at controlled temperature (20-22° C.), humidity (55-65%) and 12-h light/dark cycle (lights on 06:00 h). All animals were allowed ad libitum access to food and water. The experimental procedures used in the present investigation received prior approval from the City of Basel Cantonal Animal Protection Committee based on adherence to federal and local regulations.
II-a were synthesized at F. Hoffmann-La Roche Ltd. according to procedures known in the art^12. Both compounds were prepared as a suspension in 0.3% Tween 80 v/v 0.9% saline and administered per os by gavage using an administration volume of 5 ml/kg (rat) or 10 ml/kg (mouse). […] All doses reported in this study are expressed as free base equivalents.
On days 1-7, II-a was administered once daily per os with 10 mg/kg (WT: n=11: KO: n=12) or vehicle (WT: n=12; KO: n=12), 3 h prior to testing from day 1 of water maze until the last day of testing. The dose of II-a was reduced to 7 mg/kg on days 8-16. Water maze was conducted on days 1-12 of treatment, with 2 days for “shaping” prior to the start of drug treatment. The grooming/digging test was conducted on days 15-16. […]
Data analysis: The mean latency, path length, and swim speed were assessed during acquisition and reversal learning. In the probe trial, the percent time spent searching for the previous platform in each quadrant (left, platform, right, and opposite), and the number of platform crossings were measured.

What does the source list for Cc1cc(-c2ccc(C(F)(F)F)cc2)cc(-c2cccc(-c3cccc(S(N)(=O)=O)c3)n2)n1 [II-a]?
latency to reach platform (mean latency during acquisition and reversal learning) (FIGS. 1 and 2, C57BL/6j background, 10 weeks old, II-a 10 mg/kg po chronic vs Veh): some improvement in latency to reach platform in KO mice only; path length during acquisition and reversal learning (FIGS. 1 and 2, II-a 10 mg/kg po chronic vs Veh): significant block 7; memory impairment in the KO-Veh compared to WT-Veh (water maze) (FIGS. 3 and 4, II-a 10 mg/kg po chronic, repeated measures analysis of variance): improvement
